One experiment deals with rats. As to conditions: cited from earlier work.
The subject of experiment [1] is Mice. Description: Appetite suppression in mice: 20% sucrose consumption, tested immediately after ip injection (Example 2). It is filed as in vivo. As to conditions: 85 micrograms (equivalent to 3.4 mg/kg) in sterile saline, 10 minute test immediately after injection, versus vehicle control, p-value 0.002. The protocol: Mice were deprived of their normal food for two days and given free access to a 20% sucrose solution on the first day of food deprivation. After the two day food deprivation period, the mice were injected intraperitoneally with 0.5 ml of a solution containing the test substance. Immediately after injection, individual mice were placed in one of eight 15 cm square test boxes with a stainless steel grid floor and a glass drinking tube which projected into the box. […] Consumption of the sucrose solution was measured over a 10 minute period by electronically recording the total amount of contact with the sucrose solution during the test session. The degree of appetite suppression produced by a given test substance was determined by statistical comparison of the mean duration of sucrose consumption by control (vehicle treated) mice with that of mice treated with a test substance. The degree of appetite suppression in a treated group of mice was expressed as percent difference between the test and control group's response duration means. […]

The test system of experiment [2] is Mice. The experiment can be described thus: Appetite suppression in mice: Complan formula milk consumption after subcutaneous injection (Example 4). As to conditions: 30 min after injection, p<0.001. It is filed as in vivo.
A further experiment concerns Healthy human volunteers. The experiment can be described thus: Double-blind crossover trial of iv infusion: food intake, satiety, hunger, fullness and appetite in normal human subjects. The class given is in vivo. Conditions: iv infusion 50 pmol/(kg·h). An excerpt:
Healthy human volunteers (20 subjects) were in a double-blind crossover trial given an iv infusion of 50 pmol/(kg·h) of GLP-1(7-36)amide or saline on separate, but otherwise identical experimental days. The infusion was started at 9.00 and lasted until 15.00. At 9.45 the subjects received a fixed amount of breakfast and at 14.15 they had lunch of an identical composition but ad libitum. The subjects rated their feeling of satiety, hunger, fullness and appetite on a visual analogue scale every half hour.

Where [3] appears, read: 9.00 to 15.00, 20 subjects, rated every half hour, p=0.007.

Here are results for three substances from patent publication US20110028391A1, “Use of GLP-1 Peptides” (Novo Nordisk A/S, priority 1996, published 2011).

Read-outs that look alike come from different tables or passages of the source. No end group written: not given here.

For the substance “GLP-1(1-36)amide (HDEFERHAEGTFTSDVSSYLEGQAAKEFIAWLVKGR-NH2; UniProt P01275 92-127, looked up, fragment) [GLP-1 fragment 1-36, C-terminal amide]”, in the experiment on rats (Tang-Christensen et al. 1996, route not stated), the “Effect on food intake” value is listed as “no effect”.
GLP-1(7-36)amide: the “Suppression of sucrose consumption” value in the experiment on Mice [1] came to 60%. In addition, the “Suppression of feeding (Complan consumption)” value with Mice [2] (1 mg/kg) is 45%. For the same substance, the “Maximum effect, suppression of feeding (Complan consumption)” value with Mice [2] (20 mg/kg (highest dose tested)) was 60%.
Take “GLP-1: proglucagon fragment 72-108 per b6; as named in the cited rat studies (b7); in b63 it is shorthand for GLP-1(7-36)amide”: the “Satiety (visual analogue scale) versus saline” value in the experiment with Healthy human volunteers (9.00 to 15.00, 20 subjects, rated every half hour, p=0.006) is “GLP-1>Saline”. Also, the “Appetite (visual analogue scale) versus saline” value in the experiment with Healthy human volunteers (setting [3]) is “GLP-1<Saline”. Moreover, the “Hunger (visual analogue scale) versus saline” value with Healthy human volunteers (setting [3]) is on record as “GLP-1<Saline”. Besides, in the experiment on Healthy human volunteers (9.00 to 15.00, 20 subjects, rated every half hour, p=0.010), the “Fullness (visual analogue scale) versus saline” value was “GLP-1>Saline”. This substance displayed an Energy intake with Healthy human volunteers (ad libitum lunch, saline 4.3 MJ, p-value 0.009) of 3.9 mJ. The “Effect on food intake” value with rats (administered intracerebroventricularly, Tang-Christensen et al. 1996) is “profound effect”; with rats (administered intracerebroventricularly, Turton et al. 1996) it was “profound effect”; with rats (peripheral administration, Turton et al. 1996), “inactive”; with rats (peripherally administered, Tang-Christensen et al. 1996), “no significant effect”.
